The results in this text go back to patent US8597686B2, “Porous cellulose aggregate and formed product composition comprising the same” (Asahi Kasei Chemicals Corporation, priority 2004, dated 2013).

Data set [1] can be described thus: Elution test of ethenzamide. It is filed as physicochemical. As to conditions: molded product at 50 MPa or pulverized bulk drug. On the procedure:
0.2 g of the obtained mixed powder was weighed and put in a mortar (manufactured by Kikusui Seisakusho, Ltd. using materials SUS2, 3) and compressed with a round plane mallet (manufactured by Kikusui Seisakusho, Ltd. using materials SUS2, […], trade name, PCM-1A, compression rate 1 cm/min) and after held at the aimed pressure for 10 seconds, a columnar molded product was taken out. […]
1 g of Cellulose Aggregate G was added to 10 mL of a solution in which ethenzamide (manufactured by API Co., Ltd., a powder grade was pulverized with a small size pulverizer) was dissolved in ethanol (manufactured by Wako Pure Chemical Industries, Ltd., special grade chemical) in a ratio of 5:95 and stirred by a magnetic stirrer for three minutes. The obtained dispersion was introduced into an evaporator and completely deprived of solvent to obtain a powder sample.
Similarly operating as in Example 14 except that the pressure at the time of preparing a columnar molded product from this powder was changed to 50 MPa and elution test was performed.
Only the ethenzamide pulverized by the method of Example 15 was subjected to elution test.

Data set [2] can be described thus: Reactivity with pharmacological agent (aspirin decomposition ratio on storage). Type of data set: physicochemical. Particulars: 60° C., airtight, two weeks.
Procedure: Aspirin (official crystal aspirin one pass treated with a small pulverizer φ 0.5 mm) and each cellulose sample were blended by powder-powder in 5/5 (total amount: 0.5 g) in dry process and mixed in glass sample bottle and stored with airtight stopper (60° C.) in an oven (manufactured by Tabai Espec, trade name, perfect oven) for two weeks and decomposition ratio was measured. […] 0.25 g of aspirin after stored (0.5 g for powder blend product) was introduced into a 50 mL measuring flask and added with ethanol to total 50 mL and shaken for five minutes. The resulted ethanol solution was filtered and the filtrate was transferred to a 100 mL measuring flask and added with ethanol to total 100 mL. 1 mL of this ethanol solution and 1 mL of the above color identification test liquid were introduced into a 50 mL measuring flask and added with pure water to total 50 mL and absorbance at wavelength 532 nm was measured with an ultraviolet absorbance measuring instrument (manufactured by JASCO Corp.). The decomposition ratio was calculated as follows: Decomposition ratio=(1−(absorbance after stored/absorbance before stored))×100(%).

Take `CCOc1ccccc1C(N)=O` [Bulk Ethenzamide, ethenzamide]: the “Dissolution Rate after 1 hour” value in data set [1] came out at 9%. On to `CC(=O)Oc1ccccc1C(=O)O` [aspirin, Aspirin], for which the aspirin decomposition ratio in data set [2] stood at 15%.
